# Measured values taken from article PMC5218480 (PLoS ONE, 2017).
# Test system: MV-4-11 cells
# Assay: Gene expression microarray analysis (Affymetrix PrimeView) and GSEA
# Type: cell-based, human
# Parameters: RFU PODN (11730768_x_at) / Fold change /veh PODN (11730768_x_at) / RFU LINC00158 (11744669_a_at) / Fold change /veh LINC00158 (11744669_a_at) / RFU DUSP10 (11751237_a_at) / Fold change /veh DUSP10 (11751237_a_at) / RFU ID3 (11757404_x_at) / Fold change /veh ID3 (11757404_x_at) / RFU PLEKHG5 (11737974_s_at) / Fold change /veh PLEKHG5 (11737974_s_at) / RFU LRRC4B (11730491_at) / Fold change /veh LRRC4B (11730491_at) / RFU GIMAP4 (11747438_a_at) / Fold change /veh GIMAP4 (11747438_a_at) / RFU KRT8 (11758183_x_at) / Fold change /veh KRT8 (11758183_x_at) / RFU CNN1 (11734310_a_at) / Fold change /veh CNN1 (11734310_a_at) / RFU VPS37D (11726825_at) / Fold change /veh VPS37D (11726825_at) / RFU C10orf10 (11716522_x_at) / Fold change /veh C10orf10 (11716522_x_at) / RFU KIR2DL2 /// KIR2DL4 /// KIR2DL5A /// KIR2DL5B /// KIR2DS1 /// KIR2DS2 /// KIR2DS3 /// KIR2DS4 /// KIR3DL3 /// KIR3DL3 /// KIR3DS1 (11738374_at) / Fold change /veh KIR2DL2 /// KIR2DL4 /// KIR2DL5A /// KIR2DL5B /// KIR2DS1 /// KIR2DS2 /// KIR2DS3 /// KIR2DS4 /// KIR3DL3 /// KIR3DL3 /// KIR3DS1 (11738374_at) / RFU C1QL1 (11718748_at) / Fold change /veh C1QL1 (11718748_at) / RFU TMPRSS4 (11747572_a_at) / Fold change /veh TMPRSS4 (11747572_a_at) / RFU HAMP (11756126_x_at) / Fold change /veh HAMP (11756126_x_at) / RFU RNFT2 (11725882_a_at) / Fold change /veh RNFT2 (11725882_a_at) / RFU NR4A2 (11747474_a_at) / Fold change /veh NR4A2 (11747474_a_at) / RFU ABCC12 (11746883_a_at) / Fold change /veh ABCC12 (11746883_a_at) / RFU TMEM136 (11760407_x_at) / Fold change /veh TMEM136 (11760407_x_at) / RFU CLDN22 /// WWC2 (11732394_at) / Fold change /veh CLDN22 /// WWC2 (11732394_at) / RFU HLA-DPB1 (11760878_x_at) / Fold change /veh HLA-DPB1 (11760878_x_at) / RFU SPINT1 (11716480_a_at) / Fold change /veh SPINT1 (11716480_a_at) / RFU GAP43 (11754022_s_at) / Fold change /veh GAP43 (11754022_s_at) / RFU A4GNT (11735810_at) / Fold change /veh A4GNT (11735810_at) / RFU PRB3 (11715151_x_at) / Fold change /veh PRB3 (11715151_x_at) / RFU TUBB4B (11761932_at) / Fold change /veh TUBB4B (11761932_at) / RFU CAPN14 (11732068_a_at) / Fold change /veh CAPN14 (11732068_a_at) / RFU TMCC2 (11721928_a_at) / Fold change /veh TMCC2 (11721928_a_at) / RFU IRGQ (11745062_a_at) / Fold change /veh IRGQ (11745062_a_at) / RFU FAM174B (11720279_a_at) / Fold change /veh FAM174B (11720279_a_at) / RFU TMPRSS4 (11748680_a_at) / Fold change /veh TMPRSS4 (11748680_a_at) / RFU FAM212B (11763350_a_at) / Fold change /veh FAM212B (11763350_a_at) / RFU PLEKHG5 (11743358_a_at) / Fold change /veh PLEKHG5 (11743358_a_at) / RFU ZSCAN30 (11745921_a_at) / Fold change /veh ZSCAN30 (11745921_a_at) / RFU CMKLR1 (11741424_a_at) / Fold change /veh CMKLR1 (11741424_a_at) / RFU LOC101060620 /// MAPK8IP1 (11723275_at) / Fold change /veh LOC101060620 /// MAPK8IP1 (11723275_at) / RFU SPTSSB (11747773_x_at) / Fold change /veh SPTSSB (11747773_x_at) / RFU PRSS12 (11739890_at) / Fold change /veh PRSS12 (11739890_at) / RFU BIN1 (11741810_x_at) / Fold change /veh BIN1 (11741810_x_at) / RFU WNT11 (11732464_a_at) / Fold change /veh WNT11 (11732464_a_at) / RFU C10orf10 (11716521_a_at) / Fold change /veh C10orf10 (11716521_a_at) / RFU C5orf56 (11738089_at) / Fold change /veh C5orf56 (11738089_at) / RFU CYB561 (11721691_x_at) / Fold change /veh CYB561 (11721691_x_at) / RFU ANKRD19P (11752326_a_at) / Fold change /veh ANKRD19P (11752326_a_at) / RFU OR2T12 /// OR2T33 /// OR2T8 (11738714_s_at) / Fold change /veh OR2T12 /// OR2T33 /// OR2T8 (11738714_s_at) / RFU VCAN (11748164_a_at) / Fold change /veh VCAN (11748164_a_at) / RFU JSRP1 (11732532_at) / Fold change /veh JSRP1 (11732532_at) / RFU KRTAP10-11 (11738290_x_at) / Fold change /veh KRTAP10-11 (11738290_x_at) / RFU MYO3A (11730013_a_at) / Fold change /veh MYO3A (11730013_a_at) / RFU EBF3 (11725865_a_at) / Fold change /veh EBF3 (11725865_a_at) / RFU CAMK2N1 (11719241_x_at) / Fold change /veh CAMK2N1 (11719241_x_at) / RFU C5orf56 (11738088_a_at) / Fold change /veh C5orf56 (11738088_a_at) / RFU OLFML3 (11715873_a_at) / Fold change /veh OLFML3 (11715873_a_at) / RFU LOC100653217 /// NTM (11731650_a_at) / Fold change /veh LOC100653217 /// NTM (11731650_a_at) / RFU MAPK11 (11762145_a_at) / Fold change /veh MAPK11 (11762145_a_at) / RFU FIZ1 (11724087_x_at) / Fold change /veh FIZ1 (11724087_x_at) / RFU OASL (11726364_x_at) / Fold change /veh OASL (11726364_x_at) / RFU SOX15 (11748057_x_at) / Fold change /veh SOX15 (11748057_x_at) / RFU CD79A (11719716_a_at) / Fold change /veh CD79A (11719716_a_at) / RFU HIST1H1D (11736915_at) / Fold change /veh HIST1H1D (11736915_at) / RFU CASKIN2 (11723855_a_at) / Fold change /veh CASKIN2 (11723855_a_at) / RFU LOC730098 (11760151_x_at) / Fold change /veh LOC730098 (11760151_x_at) / RFU OR4N2 (11742367_at) / Fold change /veh OR4N2 (11742367_at) / RFU PRRT2 (11749266_a_at) / Fold change /veh PRRT2 (11749266_a_at) / RFU SNX32 (11753110_a_at) / Fold change /veh SNX32 (11753110_a_at) / RFU CDHR5 (11726645_a_at) / Fold change /veh CDHR5 (11726645_a_at) / RFU RCAN1 (11760418_a_at) / Fold change /veh RCAN1 (11760418_a_at) / RFU FAM167A (11723789_a_at) / Fold change /veh FAM167A (11723789_a_at) / RFU FAM26E (11764081_at) / Fold change /veh FAM26E (11764081_at) / RFU ISYNA1 (11749810_s_at) / Fold change /veh ISYNA1 (11749810_s_at) / RFU ACY1 (11761880_at) / Fold change /veh ACY1 (11761880_at) / RFU 11764098_at / Fold change /veh 11764098_at / RFU SAMD14 (11745864_x_at) / Fold change /veh SAMD14 (11745864_x_at) / RFU NPB (11741838_a_at) / Fold change /veh NPB (11741838_a_at) / RFU TMPRSS6 (11731388_a_at) / Fold change /veh TMPRSS6 (11731388_a_at) / RFU KRTAP10-2 (11738614_at) / Fold change /veh KRTAP10-2 (11738614_at) / RFU ARHGAP8 /// PRR5-ARHGAP8 (11727945_x_at) / Fold change /veh ARHGAP8 /// PRR5-ARHGAP8 (11727945_x_at) / RFU KRTAP5-7 /// NADSYN1 (11734609_at) / Fold change /veh KRTAP5-7 /// NADSYN1 (11734609_at) / RFU RASL12 (11751679_a_at) / Fold change /veh RASL12 (11751679_a_at) / RFU CDKN2B (11736163_a_at) / Fold change /veh CDKN2B (11736163_a_at) / RFU PRF1 (11729649_at) / Fold change /veh PRF1 (11729649_at) / RFU, ZNF638 /// ZNF638-IT1 / Fold change vs veh, ZNF638 /// ZNF638-IT1 / RFU, PANK3 / Fold change vs veh, PANK3 / RFU, SH3YL1 / Fold change vs veh, SH3YL1 / RFU, ZEB2 / Fold change vs veh, ZEB2 / RFU, NRIP1 / Fold change vs veh, NRIP1 / RFU, PTTG1IP / Fold change vs veh, PTTG1IP / RFU, CAPN2 / Fold change vs veh, CAPN2 / RFU, MED14 / Fold change vs veh, MED14 / RFU, SNORA58 / Fold change vs veh, SNORA58 / RFU, C1orf63 / Fold change vs veh, C1orf63 / RFU, LRRFIP1 / Fold change vs veh, LRRFIP1 / RFU, NDUFAF7 / Fold change vs veh, NDUFAF7 / RFU, SLC12A2 / Fold change vs veh, SLC12A2 / RFU, IBTK / Fold change vs veh, IBTK / RFU, ESF1 / Fold change vs veh, ESF1 / Fold change vs veh, TMEM50B / RFU, TAOK1 / Fold change vs veh, TAOK1 / RFU, ACBD3 / Fold change vs veh, ACBD3 / RFU, TMA16 / Fold change vs veh, TMA16 / RFU, RWDD3 / Fold change vs veh, RWDD3 / RFU, BCAT1 / Fold change vs veh, BCAT1 / RFU, EDEM3 / Fold change vs veh, EDEM3 / RFU, TMEM33 / Fold change vs veh, TMEM33 / RFU, WDR75 / Fold change vs veh, WDR75 / RFU, AHCTF1 / Fold change vs veh, AHCTF1 / RFU, TFRC / Fold change vs veh, TFRC / RFU, ZDHHC17 / Fold change vs veh, ZDHHC17 / RFU, NOM1 / Fold change vs veh, NOM1 / RFU, ARL8B / Fold change vs veh, ARL8B / RFU, ZBTB11 / Fold change vs veh, ZBTB11 / RFU, TAMM41 / Fold change vs veh, TAMM41 / RFU, KIAA1704 /// LOC100996395 / Fold change vs veh, KIAA1704 /// LOC100996395 / RFU, ING1 / Fold change vs veh, ING1 / RFU, TRMT61B / Fold change vs veh, TRMT61B / RFU, FUBP3 / Fold change vs veh, FUBP3 / RFU, TP53 / Fold change vs veh, TP53 / RFU, TNKS2 / Fold change vs veh, TNKS2 / RFU, ZFP14 / Fold change vs veh, ZFP14 / RFU, ACTR2 / Fold change vs veh, ACTR2 / RFU, PPP3R1 / Fold change vs veh, PPP3R1 / RFU, PIK3R1 / Fold change vs veh, PIK3R1 / RFU, HNRNPA1 / Fold change vs veh, HNRNPA1 / RFU, RNF170 / Fold change vs veh, RNF170 / RFU, ZNF28 / Fold change vs veh, ZNF28 / RFU, RNGTT / Fold change vs veh, RNGTT / RFU, OGT / Fold change vs veh, OGT / RFU, BRD1 / Fold change vs veh, BRD1 / RFU, MARS / Fold change vs veh, MARS / RFU, ZNF655 / Fold change vs veh, ZNF655 / RFU, FAHD1 / Fold change vs veh, FAHD1 / RFU, BDP1 / Fold change vs veh, BDP1 / RFU, LRRCC1 / Fold change vs veh, LRRCC1 / RFU, ARID1A / Fold change vs veh, ARID1A / RFU, ZNF146 / Fold change vs veh, ZNF146 / RFU, ZNF330 / Fold change vs veh, ZNF330 / RFU, GPN3 / Fold change vs veh, GPN3 / RFU, C9orf123 / Fold change vs veh, C9orf123 / RFU, N4BP2L2 / Fold change vs veh, N4BP2L2 / RFU, ARFIP1 / Fold change vs veh, ARFIP1 / RFU, FAM179B / Fold change vs veh, FAM179B / RFU, BCL10 / Fold change vs veh, BCL10 / RFU, UHRF1BP1L / Fold change vs veh, UHRF1BP1L / RFU, BET1 / Fold change vs veh, BET1 / RFU, CNOT2 / Fold change vs veh, CNOT2 / RFU, ZNF268 / Fold change vs veh, ZNF268 / Fold change vs veh, ZNF507 / RFU, DGCR2 / Fold change vs veh, DGCR2 / RFU, WDSUB1 / Fold change vs veh, WDSUB1 / Fold change vs veh, HSP90B1 /// MIR3652 / RFU, ADSS / Fold change vs veh, ADSS / RFU, GK / Fold change vs veh, GK / RFU, ZNF148 / Fold change vs veh, ZNF148 / RFU, TAF9 / Fold change vs veh, TAF9 / RFU, SLC1A5 / Fold change vs veh, SLC1A5 / RFU, SLMO2 / Fold change vs veh, SLMO2 / RFU, ABCC4 / Fold change vs veh, ABCC4 / RFU, LOC101060439 /// RAP1B / Fold change vs veh, LOC101060439 /// RAP1B / RFU, RFX7 / Fold change vs veh, RFX7 / RFU, GTPBP10 / Fold change vs veh, GTPBP10 / RFU, CNEP1R1 / Fold change vs veh, CNEP1R1 / RFU, BIVM-ERCC5 /// ERCC5 / Fold change vs veh, BIVM-ERCC5 /// ERCC5 / RFU, ILF3 / Fold change vs veh, ILF3 / RFU 11762660_at / Fold change /veh 11762660_at / RFU VCAN (11757783_s_at) / Fold change /veh VCAN (11757783_s_at) / RFU DDX43 (11728927_at) / Fold change /veh DDX43 (11728927_at) / RFU KRT8 (11758188_x_at) / Fold change /veh KRT8 (11758188_x_at) / RFU NKD1 (11759106_at) / Fold change /veh NKD1 (11759106_at) / RFU SRD5A1 (11742802_a_at) / Fold change /veh SRD5A1 (11742802_a_at) / RFU TPSAB1 /// TPSB2 (11721975_s_at) / Fold change /veh TPSAB1 /// TPSB2 (11721975_s_at) / RFU GSTM3 (11746129_a_at) / Fold change /veh GSTM3 (11746129_a_at) / RFU IL23R (11737362_x_at) / Fold change /veh IL23R (11737362_x_at) / RFU TMEM51 (11727254_a_at) / Fold change /veh TMEM51 (11727254_a_at) / RFU PIWIL2 (11732686_x_at) / Fold change /veh PIWIL2 (11732686_x_at) / RFU ORM1 (11744905_x_at) / Fold change /veh ORM1 (11744905_x_at) / RFU CCDC152 (11743942_at) / Fold change /veh CCDC152 (11743942_at) / RFU ECM1 (11717891_a_at) / Fold change /veh ECM1 (11717891_a_at) / RFU IL23R (11748794_a_at) / Fold change /veh IL23R (11748794_a_at) / RFU TNFAIP8L3 (11732012_x_at) / Fold change /veh TNFAIP8L3 (11732012_x_at) / RFU MBOAT4 (11741988_at) / Fold change /veh MBOAT4 (11741988_at) / RFU 11764193_at / Fold change /veh 11764193_at / RFU TMEM53 (11763286_at) / Fold change /veh TMEM53 (11763286_at) / RFU MAGEB2 (11727129_at) / Fold change /veh MAGEB2 (11727129_at) / RFU TMEM200A (11744735_a_at) / Fold change /veh TMEM200A (11744735_a_at) / RFU CCDC152 (11751479_a_at) / Fold change /veh CCDC152 (11751479_a_at) / RFU FAM211A (11726209_a_at) / Fold change /veh FAM211A (11726209_a_at) / RFU RGS16 (11746705_a_at) / Fold change /veh RGS16 (11746705_a_at) / RFU VCAN (11755009_s_at) / Fold change /veh VCAN (11755009_s_at) / RFU RHOB (11743442_s_at) / Fold change /veh RHOB (11743442_s_at) / RFU RGS16 (11720943_a_at) / Fold change /veh RGS16 (11720943_a_at) / RFU RGS16 (11720944_at) / Fold change /veh RGS16 (11720944_at) / RFU, VPS4B / Fold change vs veh, VPS4B / RFU, CREB1 / Fold change vs veh, CREB1 / RFU, DNAJC13 / Fold change vs veh, DNAJC13 / RFU, GNAQ / Fold change vs veh, GNAQ / RFU, CDK5R1 / Fold change vs veh, CDK5R1 / RFU, ZRANB3 / Fold change vs veh, ZRANB3 / RFU, CUL4A / Fold change vs veh, CUL4A / RFU, CCNY / Fold change vs veh, CCNY / RFU, UFL1 / Fold change vs veh, UFL1 / RFU, COG3 / Fold change vs veh, COG3 / RFU, DIAPH2 / Fold change vs veh, DIAPH2 / RFU, SKA2 / Fold change vs veh, SKA2 / RFU, AFF3 / Fold change vs veh, AFF3 / RFU, LMF1 / Fold change vs veh, LMF1 / RFU, IPO11 / Fold change vs veh, IPO11 / RFU, DFFB / Fold change vs veh, DFFB / RFU, FOXP1 / Fold change vs veh, FOXP1 / RFU, CARD8 / Fold change vs veh, CARD8 / RFU, STRN3 / Fold change vs veh, STRN3 / RFU, ADK / Fold change vs veh, ADK / RFU, RASSF2 / Fold change vs veh, RASSF2 / RFU, WIPF1 / Fold change vs veh, WIPF1 / RFU, LARP1B / Fold change vs veh, LARP1B / RFU, RASA1 / Fold change vs veh, RASA1 / RFU, RB1 / Fold change vs veh, RB1 / RFU, PPFIA1 / Fold change vs veh, PPFIA1 / RFU, MAT2A / Fold change vs veh, MAT2A / RFU, CCT5 / Fold change vs veh, CCT5 / RFU, WDR92 / Fold change vs veh, WDR92 / RFU, CUX1 / Fold change vs veh, CUX1 / RFU, TTC7A / Fold change vs veh, TTC7A / RFU, TMEM135 / Fold change vs veh, TMEM135 / RFU, DEPTOR / Fold change vs veh, DEPTOR / RFU, CPM / Fold change vs veh, CPM / RFU, DNAJB6 / Fold change vs veh, DNAJB6 / RFU, CACNA2D3 / Fold change vs veh, CACNA2D3 / RFU, DTX4 / Fold change vs veh, DTX4 / RFU, TFCP2 / Fold change vs veh, TFCP2 / RFU, GMCL1 /// GMCL1P1 / Fold change vs veh, GMCL1 /// GMCL1P1 / RFU, AEBP2 / Fold change vs veh, AEBP2 / RFU, SNHG1 /// SNORD22 /// SNORD25 /// SNORD26 /// SNORD27 /// SNORD28 /// SNORD29 /// SNORD31 / Fold change vs veh, SNHG1 /// SNORD22 /// SNORD25 /// SNORD26 /// SNORD27 /// SNORD28 /// SNORD29 /// SNORD31 / Fold change (Aza/veh), C12orf56 (ProbeSet 11735607_a_at) / Fold change (ACY-1035/veh), C12orf56 (ProbeSet 11735607_a_at) / Fold change (Aza/veh), FGFR1OP (ProbeSet 11751329_s_at) / Fold change (ACY-1035/veh), FGFR1OP (ProbeSet 11751329_s_at) / Fold change (Aza/veh), VPS36 (ProbeSet 11739960_a_at) / Fold change (ACY-1035/veh), VPS36 (ProbeSet 11739960_a_at) / RFU SYPL1 (11715823_x_at) / Fold change /veh SYPL1 (11715823_x_at) / RFU IGFBP7 (11715501_s_at) / Fold change /veh IGFBP7 (11715501_s_at) / RFU REEP3 (11722064_at) / Fold change /veh REEP3 (11722064_at) / RFU IGLL1 (11728026_x_at) / Fold change /veh IGLL1 (11728026_x_at): dose or concentration left out as unconfirmed
# Conditions: ProbeSet 11763166_a_at; LIST B
structure (smiles),measurement,value
Nc1ccc(-c2cccs2)cc1NC(=O)c1ccc2c(c1)cc(C1CC1)n2CCN1CCOCC1 [ACY-1035],"RFU, MARS",48.43 RFU
